How the values were obtained:
Test in all cases: relative viability (nuclei count vs DMSO), 5 days (fraction); higher = more cells survive
[1] = compound: C1=CC(=CC=C1C2=CC(=C(S2)NC(=O)N)C(=O)N)F [TPCA-1] + COc1cccc2cc(-c3nc([C@H]4CC[C@H](C(=O)O)CC4)n4ncnc(N)c34)[nH]c12 [OSI-027] (partner 0.5 µM)
How it was run: (§1)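 Values are medians from duplicate plates. Each reflects relative viability, defined as the nuclei count of treated wells over that of vehicle wells. Lung cancer cell lines in 1536-well plates were pin-tool dosed one day after seeding with one drug alone or with a fixed anchor-drug dose plus five library-drug doses (not always all listed) in √10 steps, then fixed, stained and imaged at 4× after 5 days.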

[2] = compound: C[C@]12O[C@H](C[C@]1(O)CO)n1c3ccccc3c3c4c(c5c6ccccc6n2c5c31)CNC4=O [Lestaurtinib] + C[C@]1(O)C[C@@H](c2nc(-c3ccc4ccc(-c5ccccc5)nc4c3)c3c(N)nccn32)C1 [Linsitinib] (partner 1 µM)
How it was run: as §1

[3] = compound: C1/C(=C\C2=CC=CS2)/C(=O)/C(=C/C3=CC=CS3)/C1 + CC1(C)CCC(c2ccc(Cl)cc2)=C(CN2CCN(c3ccc(C(=O)NS(=O)(=O)c4ccc(N[C@H](CCN5CCOCC5)CSc5ccccc5)c(S(=O)(=O)C(F)(F)F)c4)cc3)CC2)C1 [Navitoclax] (partner 0.5 µM)
How it was run: as §1

[4] = compound: C[C@]12O[C@H](C[C@]1(O)CO)n1c3ccccc3c3c4c(c5c6ccccc6n2c5c31)CNC4=O [Lestaurtinib] + CC(=O)Nc1cccc(-n2c(=O)n(C3CC3)c(=O)c3c(Nc4ccc(I)cc4F)n(C)c(=O)c(C)c32)c1 [Trametinib] (partner 0.02 µM)
How it was run: as §1

| Cell Line | relative viability ([1]; first compound 0.04 µM) | relative viability ([1]; first compound 0.1265 µM) | relative viability ([1]; first compound 0.4 µM) | relative viability ([1]; first compound 1.265 µM) | relative viability ([1]; first compound 4 µM) | relative viability ([2]; first compound 0.005 µM) | relative viability ([2]; first compound 0.01581 µM) | relative viability ([2]; first compound 0.05 µM) | relative viability ([2]; first compound 0.1581 µM) | relative viability ([2]; first compound 0.5 µM) | relative viability ([3]; first compound 0.2 µM) | relative viability ([3]; first compound 0.6325 µM) | relative viability ([3]; first compound 2 µM) | relative viability ([3]; first compound 6.325 µM) | relative viability ([3]; first compound 20 µM) | relative viability ([4]; first compound 0.005 µM) | relative viability ([4]; first compound 0.01581 µM) | relative viability ([4]; first compound 0.05 µM) | relative viability ([4]; first compound 0.1581 µM) | relative viability ([4]; first compound 0.5 µM) |
| --- | --- | --- | --- | --- | --- | --- | --- | --- | --- | --- | --- | --- | --- | --- | --- | --- | --- | --- | --- | --- |
| PC-3 [JPC-3] | 0.83 | 0.702 | 0.73 | 0.654 | 0.615 | 1.02 | 0.954 | 0.951 | 0.87 | 1 | 0.83 | 0.753 | 0.904 | 0.716 | 0.841 | 0.766 | 0.709 | 0.779 | 0.575 | 0.585 |
| NCI-H1792 | 0.701 | 0.653 | 0.696 | 0.618 | 0.564 | 0.757 | 0.56 | 0.386 | 0.243 | 0.144 | 0.666 | 0.579 | 0.743 | – | 0.624 | 0.429 | 0.516 | 0.339 | 0.386 | 0.244 |
| NCI-H596 | 0.717 | 0.584 | 0.678 | 0.787 | 0.389 | 1.04 | 1.01 | 0.882 | 1.21 | 0.907 | 0.987 | 0.975 | 0.919 | 0.956 | 0.933 | 0.691 | 0.842 | 0.848 | 0.993 | 0.845 |
| RERF-LC-KJ | 0.674 | 0.489 | 0.565 | 0.532 | 0.485 | 0.964 | 0.946 | 0.535 | 0.619 | 0.516 | 0.949 | 0.995 | 0.965 | 0.787 | 0.86 | 0.946 | 0.879 | 0.736 | 0.701 | 0.478 |
| NCI-H322M | 0.567 | 0.534 | 0.564 | 0.581 | 0.382 | 0.853 | 0.649 | 0.375 | 0.425 | 0.392 | 1.32 | 1.2 | 1.4 | 0.587 | 0.976 | 0.507 | 0.567 | – | 0.512 | 0.672 |
| COR-L 105 | 0.646 | 0.602 | 0.707 | 0.649 | 0.396 | 1.11 | 0.873 | 0.692 | 0.502 | 0.337 | 0.623 | 0.772 | 0.79 | 0.737 | 0.701 | 0.408 | 0.419 | 0.446 | 0.347 | 0.341 |
| NCI-H1993 | 0.544 | 0.524 | 0.521 | 0.536 | 0.556 | 0.702 | 0.673 | 0.713 | 0.698 | 0.573 | 1.04 | 0.877 | 0.971 | 0.693 | 0.818 | 0.553 | 0.505 | 0.483 | 0.498 | 0.418 |
| EBC-1 | – | – | – | – | – | 0.856 | 0.999 | 0.585 | 0.633 | 0.432 | 0.439 | 0.469 | 0.478 | 0.398 | 0.497 | – | – | – | – | – |
| ABC-1 | 0.592 | 0.515 | 0.62 | 0.475 | 0.293 | 0.834 | 0.993 | 0.603 | 0.536 | 0.165 | – | – | – | – | – | – | – | – | – | – |
| NCI-H1650 | 0.639 | – | 0.682 | 0.798 | 0.531 | – | – | – | – | – | 1.11 | 1.15 | 1.21 | 1.1 | 1.24 | 0.516 | 0.66 | 0.656 | 0.687 | 0.335 |
| NCI-H1563 | 0.784 | 0.766 | 0.827 | 0.712 | 0.688 | 1.25 | 1.17 | 1.16 | 1.22 | 0.736 | – | – | – | – | – | – | – | – | – | – |
| NCI-H1648 | 0.266 | 0.244 | 0.247 | 0.208 | 0.257 | – | – | – | – | – | – | – | – | – | – | – | 0.728 | – | 0.458 | 0.367 |
| NCI-H1299 | – | – | – | – | – | 0.985 | 1.02 | 0.688 | 0.504 | 0.499 | 1.08 | 1.08 | 1.03 | 0.973 | 1.05 | – | – | – | – | – |
| A549 | – | – | – | – | – | 0.621 | 0.596 | 0.229 | 0.148 | 0.174 | 1.32 | 1.33 | 1.24 | 1.02 | 1.19 | – | – | – | – | – |
| NCI-H1623 | 0.497 | 0.509 | 0.484 | 0.514 | 0.389 | – | – | – | – | – | – | – | – | – | – | – | – | – | – | – |
| NCI-H1703 | – | – | – | – | – | 0.513 | 0.508 | 0.562 | 0.164 | 0.149 | 1.3 | 1.8 | 1.32 | 1.05 | 1.14 | – | – | – | – | – |
| NCI-H2170 | 0.789 | 0.641 | 0.716 | 0.584 | 0.396 | – | – | – | – | – | 0.655 | 0.565 | 0.678 | 0.516 | 0.547 | 0.896 | 0.864 | 0.609 | 0.764 | 0.31 |
| NCI-H661 | 0.734 | 0.665 | 0.749 | 0.607 | 0.39 | 0.543 | 0.609 | 0.556 | 0.474 | 0.262 | – | – | – | – | – | 0.609 | 0.633 | 0.508 | 0.607 | 0.321 |
| NCI-H522 | 0.744 | 0.721 | 0.843 | 0.837 | 0.643 | – | – | – | – | – | – | – | – | – | – | 0.786 | 0.786 | 0.752 | 0.701 | 0.537 |
| Calu-6 | – | – | – | – | – | 0.908 | – | 0.555 | 0.262 | 0.218 | 0.855 | 0.848 | 0.91 | 0.811 | 0.857 | – | – | – | – | – |
| ChaGo-K-1 | 0.652 | 0.518 | 0.617 | 0.577 | 0.276 | – | – | – | – | – | 1.01 | 0.964 | 1.11 | 0.698 | 0.727 | 0.899 | 1.02 | 0.704 | 0.773 | 0.645 |
| LCLC-103H | 0.458 | 0.44 | 0.485 | 0.443 | 0.387 | 1.07 | 1.12 | 0.697 | 0.705 | 0.6 | – | – | – | – | – | 0.717 | 0.741 | 0.609 | 0.592 | 0.678 |

From the supplement of paper PMC10307832
